Data reported in US20230348376A1 (TEIJIN PHARMA LIMITED, priority 2020, published 2023).

target: T1, human VDR (Homo sapiens, UniProt P11473); assay: Evaluation of VDR transcription activity in human osteoblasts (HOS cells), luciferase reporter; conditions: Activity (EC50, VDR transcription activity), HOS cells transfected with human VDR, human RXRα and DR3 luciferase reporter; 21 hours
T1 sequence (P11473 1-427): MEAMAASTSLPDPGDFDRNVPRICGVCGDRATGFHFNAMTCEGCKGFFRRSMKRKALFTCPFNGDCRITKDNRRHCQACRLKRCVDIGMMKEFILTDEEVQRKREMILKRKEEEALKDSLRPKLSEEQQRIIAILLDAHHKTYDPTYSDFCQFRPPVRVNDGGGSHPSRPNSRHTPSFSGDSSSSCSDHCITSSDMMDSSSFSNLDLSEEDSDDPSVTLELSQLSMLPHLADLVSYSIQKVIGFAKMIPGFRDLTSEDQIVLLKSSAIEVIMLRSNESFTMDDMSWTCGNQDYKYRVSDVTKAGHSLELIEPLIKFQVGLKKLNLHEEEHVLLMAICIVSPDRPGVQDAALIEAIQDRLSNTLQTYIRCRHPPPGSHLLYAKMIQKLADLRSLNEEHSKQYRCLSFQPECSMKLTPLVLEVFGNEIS
T1 sequence (P19793 1-462 partner): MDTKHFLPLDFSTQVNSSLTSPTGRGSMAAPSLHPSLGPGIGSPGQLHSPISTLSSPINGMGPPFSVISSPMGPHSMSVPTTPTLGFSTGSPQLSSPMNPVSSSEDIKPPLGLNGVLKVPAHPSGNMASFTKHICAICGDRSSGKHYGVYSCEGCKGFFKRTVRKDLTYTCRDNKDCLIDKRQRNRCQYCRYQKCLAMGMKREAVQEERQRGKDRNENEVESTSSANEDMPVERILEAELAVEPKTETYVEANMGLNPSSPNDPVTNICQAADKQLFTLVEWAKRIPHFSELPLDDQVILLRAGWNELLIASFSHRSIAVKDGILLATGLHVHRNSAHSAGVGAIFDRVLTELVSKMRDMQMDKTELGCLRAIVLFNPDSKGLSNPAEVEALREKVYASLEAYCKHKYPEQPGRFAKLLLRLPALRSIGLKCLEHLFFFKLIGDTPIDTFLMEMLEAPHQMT

**Q.** For `C[C@@H](CN1CC[C@@H](F)C1)[C@H]1CC[C@H]2/C(=C/C=C3CC(O)C[C@H](O)C3)CCC[C@]12C` (stereo in doubt) [Compound B098, (1R,3S)-5-(2-((1R,3aS,7aR,E)-1-((R)-1-((R)-3-fluoropyrrolidin-1-yl)propan-2-yl)-7a-methyloctahydro-4H-inden-4-ylidene)ethylidene)cyclohexane-1,3-diol], which EC50 is on record?
**A.** 10 to 100 nM

**Q.** For `C[C@@H](CN1CC[C@H](C(F)F)C1)[C@H]1CC[C@H]2/C(=C/C=C3CC(O)C[C@H](O)C3)CCC[C@]12C` (stereo in doubt) [Compound B099, (1R,3S)-5-(2-((1R,3aS,7aR,E)-1-((R)-1-((S)-3-(difluoromethyl)pyrrolidin-1-yl)propan-2-yl)-7a-methyloctahydro-4H-inden-4-ylidene)ethylidene)cyclohexane-1,3-diol], which EC50 is on record?
**A.** 10 to 100 nM

**Q.** With `C[C@@H](CN1CC[C@@H](C(F)F)C1)[C@H]1CC[C@H]2/C(=C/C=C3CC(O)C[C@H](O)C3)CCC[C@]12C` (stereo in doubt) [Compound B100, (1R,3S)-5-(2-((1R,3aS,7aR,E)-1-((R)-1-((R)-3-(difluoromethyl)pyrrolidin-1-yl)propan-2-yl)-7a-methyloctahydro-4H-inden-4-ylidene)ethylidene)cyclohexane-1,3-diol] as the molecule, how does the EC50 read?
**A.** 1 to 10 nM

**Q.** Which EC50 does the source give for `C[C@@H](CN1CC[C@H](C(C)(F)F)C1)[C@H]1CC[C@H]2/C(=C/C=C3CC(O)C[C@H](O)C3)CCC[C@]12C` (stereo in doubt) [Compound B101, (1R,3S)-5-(2-((1R,3aS,7aR,E)-1-((R)-1-((S)-3-(1,1-difluoroethyl)pyrrolidin-1-yl)propan-2-yl)-7a-methyloctahydro-4H-inden-4-ylidene)ethylidene)cyclohexane-1,3-diol] here?
**A.** 10 to 100 nM

**Q.** For `C[C@@H](CN1CC[C@@H](C(C)(F)F)C1)[C@H]1CC[C@H]2/C(=C/C=C3CC(O)C[C@H](O)C3)CCC[C@]12C` (stereo in doubt) [Compound B102, (1R,3S)-5-(2-((1R,3aS,7aR,E)-1-((R)-1-((R)-3-(1,1-difluoroethyl)pyrrolidin-1-yl)propan-2-yl)-7a-methyloctahydro-4H-inden-4-ylidene)ethylidene)cyclohexane-1,3-diol], which EC50 is on record?
**A.** 1 to 10 nM

**Q.** For `C[C@@H](CN1CC[C@@H](CC(F)F)C1)[C@H]1CC[C@H]2/C(=C/C=C3CC(O)C[C@H](O)C3)CCC[C@]12C` (stereo in doubt) [Compound B103, (1R,3 S)-5-(2-((1R,3aS,7aR,E)-1-((R)-1-((S)-3-(2,2-difluoroethyl)pyrrolidin-1-yl)propan-2-yl)-7a-methyloctahydro-4H-inden-4-ylidene)ethylidene)cyclohexane-1,3-diol], which EC50 is on record?
**A.** 10 to 100 nM

**Q.** For `C=C1C(O)CC(=C/C=C2\CCC[C@]3(C)[C@@H]([C@H](C)CCN4CCOC5(CC5)C4)CC[C@@H]23)C[C@H]1O` (stereo in doubt) [Compound D026, (1R,3S)-5-(2-((1R,3aS,7aR,E)-1-((R)-4-(4-oxa-7-azaspiro[2.5]octan-7-yl)butan-2-yl)-7a-methyloctahydro-4H-inden-4-ylidene)ethylidene)-2-methylenecyclohexane-1,3-diol], which EC50 is on record?
**A.** 1 to 10 nM

**Q.** How did the EC50 turn out when `C=C1/C(=C\C=C2/CCC[C@]3(C)[C@@H]([C@H](C)CCN4CCOC[C@H]4C)CC[C@@H]23)C[C@@H](O)CC1O` (stereo in doubt) [Compound D046, (1R,3R,Z)-5-(2-((1R,3aS,7aR,E)-7a-methyl-1-((R)-4-((R)-3-methylmorpholino)butan-2-yl)octahydro-4H-inden-4-ylidene)ethylidene)-4-methylenecyclohexane-1,3-diol] was run?
**A.** 10 to 100 nM

**Q.** For `C=C1[C@H](O)CC(=C/C=C2\CCC[C@]3(C)[C@@H]([C@H](C)CN4CC(F)C4)CC[C@@H]23)C[C@H]1O` [Compound A002, (1R,3R)-5-(2-((1R,3aS,7aR,E)-1-((S)-1-(3-fluoroazetidin-1-yl)propan-2-yl)-7a-methyloctahydro-4H-inden-4-ylidene)ethylidene)-2-methylenecyclohexane-1,3-diol], which EC50 is on record?
**A.** 10 to 100 nM

**Q.** How did the EC50 turn out when `C=C1/C(=C\C=C2/CCC[C@]3(C)[C@@H]([C@H](C)CN4CC(C(C)(F)F)C4)CC[C@@H]23)C[C@@H](O)C[C@@H]1O` [Compound A006, (1R,3S,Z)-5-(2-((1R,3aS,7aR,E)-1-((S)-1-(3-(1,1-difluoroethyl)azetidin-1-yl)propan-2-yl)-7a-methyloctahydro-4H-inden-4-ylidene)ethylidene)-4-methylenecyclohexane-1,3-diol] was run?
**A.** 10 to 100 nM

**Q.** For `C=C1[C@H](O)CC(=C/C=C2\CCC[C@]3(C)[C@@H]([C@H](C)CN4CC(C(C)(F)F)C4)CC[C@@H]23)C[C@H]1O` [Compound A007, (1R,3R)-5-(2-((1R,3aS,7aR,E)-1-((S)-1-(3-(1,1-difluoroethyl)azetidin-1-yl)propan-2-yl)-7a-methyloctahydro-4H-inden-4-ylidene)ethylidene)-2-methylenecyclohexane-1,3-diol], which EC50 is on record?
**A.** 10 to 100 nM

**Q.** For `C=C1/C(=C\C=C2/CCC[C@]3(C)[C@@H]([C@H](C)CN4CC(C(C)(F)F)C4)CC[C@@H]23)C[C@@H](O)[C@H](C)[C@@H]1O` [Compound A008, (1R,2S,3S,Z)-5-(2-((1R,3aS,7aR,E)-1-((S)-1-(3-(1,1-difluoroethyl)azetidin-1-yl)propan-2-yl)-7a-methyloctahydro-4H-inden-4-ylidene)ethylidene)-2-methyl-4-methylenecyclohexane-1,3-diol], which EC50 is on record?
**A.** 10 to 100 nM

**Q.** For `C=C1/C(=C\C=C2/CCC[C@]3(C)[C@@H]([C@H](C)CN4CC(O)(C(F)(F)F)C4)CC[C@@H]23)C[C@@H](O)C[C@@H]1O` [Compound A009, (1R,3S,Z)-5-(2-((1R,3aS,7aR,E)-1-((S)-1-(3-hydroxy-3-(trifluoromethyl)azetidin-1-yl)propan-2-yl)-7a-methyloctahydro-4H-inden-4-ylidene)ethylidene)-4-methylenecyclohexane-1,3-diol], which EC50 is on record?
**A.** 1 to 10 nM

**Q.** Which EC50 does the source give for `C[C@H](CN1CC(O)(C(F)(F)F)C1)[C@H]1CC[C@H]2/C(=C/C=C3C[C@@H](O)C[C@H](O)C3)CCC[C@]12C` [Compound A010, (1R,3R)-5-(2-((1R,3aS,7aR,E)-1-((S)-1-(3-hydroxy-3-(trifluoromethyl)azetidin-1-yl)propan-2-yl)-7a-methyloctahydro-4H-inden-4-ylidene)ethylidene)cyclohexane-1,3-diol] here?
**A.** 1 to 10 nM

**Q.** Which EC50 does the source give for `C=C1[C@H](O)CC(=C/C=C2\CCC[C@]3(C)[C@@H]([C@H](C)CN4CC(O)(C(F)(F)F)C4)CC[C@@H]23)C[C@H]1O` [Compound A011, (1R,3R)-5-(2-((1R,3aS,7aR,E)-1-((S)-1-(3-hydroxy-3-(trifluoromethyl)azetidin-1-yl)propan-2-yl)-7a-methyloctahydro-4H-inden-4-ylidene)ethylidene)-2-methylenecyclohexane-1,3-diol] here?
**A.** < 1 nM

**Q.** With `COC1(C(F)(F)F)CN(C[C@@H](C)[C@H]2CC[C@H]3/C(=C/C=C4C[C@@H](O)C[C@H](O)C4)CCC[C@]23C)C1` [Compound A012, (1R,3R)-5-(2-((1R,3aS,7aR,E)-1-((S)-1-(3-methoxy-3-trifluoromethylazetidin-1-yl)propan-2-yl)-7a-methyloctahydro-4H-inden-4-ylidene)ethylidene)cyclohexane-1,3-diol] as the molecule, how does the EC50 read?
**A.** 10 to 100 nM

**Q.** With `C[C@H](CN1CC(OC(F)(F)F)C1)[C@H]1CC[C@H]2/C(=C/C=C3C[C@@H](O)C[C@H](O)C3)CCC[C@]12C` [Compound A013] as the molecule, how does the EC50 read?
**A.** 100 to 1000 nM

**Q.** `C=C1[C@H](O)CC(=C/C=C2\CCC[C@]3(C)[C@@H]([C@H](C)CN4CC(OCC(F)F)C4)CC[C@@H]23)C[C@H]1O` [Compound A016, (1R,3R)-5-(2-((1R,3aS,7aR,E)-1-((S)-1-(3-(2,2-difluoroethoxy)azetidin-1-yl)propan-2-yl)-7a-methyloctahydro-4H-inden-4-ylidene)ethylidene)-2-methylenecyclohexane-1,3-diol] was tested. Which EC50 did it give?
**A.** 10 to 100 nM

**Q.** `C=C1[C@H](O)CC(=C/C=C2\CCC[C@]3(C)[C@@H]([C@H](C)CN4CC(OC(F)F)C4)CC[C@@H]23)C[C@H]1O` [Compound A018] was tested. Which EC50 did it give?
**A.** 1 to 10 nM

**Q.** `C[C@H](CN1CC(CC(F)F)C1)[C@H]1CC[C@H]2/C(=C/C=C3C[C@@H](O)C[C@H](O)C3)CCC[C@]12C` [Compound A021, (1R,3R)-5-(2-((1R,3aS,7aR,E)-1-((S)-1-(3-(2,2-difluoroethyl)azetidin-1-yl)propan-2-yl)-7a-methyloctahydro-4H-inden-4-ylidene)ethylidene)cyclohexane-1,3-diol] was tested. Which EC50 did it give?
**A.** 100 to 1000 nM

**Q.** With `C=C1[C@H](O)CC(=C/C=C2\CCC[C@]3(C)[C@@H]([C@H](C)CCN4CC(O)(C(F)(F)F)C4)CC[C@@H]23)C[C@H]1O` [Compound A023, (1R,3R)-5-(2-((1R,3aS,7aR,E)-1-((R)-4-(3-hydroxy-3-(trifluoromethyl)azetidin-1-yl)butan-2-yl)-7a-methyloctahydro-4H-inden-4-ylidene)ethylidene)-2-methylenecyclohexane-1,3-diol] as the molecule, how does the EC50 read?
**A.** < 1 nM
